Patent US20240016788A1, “PHARMACEUTICAL COMPOSITION FOR PREVENTING OR TREATING DIABETIC AND POSTMENOPAUSAL OSTEOPOROSIS, CONTAINING ADIPORON” (PnP Biopharm Co., Ltd., priority 2020, published 2024)

Key:
Assay type in all cases: in vivo
[1] = system: type 2 diabetic db/db mice; experiment: Serum ACP5/TRAP, osteocalcin and urine deoxypyridinoline by ELISA, db/db mice; conditions: adiporon 30 mg/kg/day, 4 weeks
Procedure: (§1) A leptin receptor-defective type 2 diabetic animal model (db/db mice) and a normal control group (db/m mice) were used, and the experiment was performed by dividing into 4 groups as follows: non-diabetic control group (dm cont, n=8), non-diabetic adiporon treatment group (dm+AdipoR, n=8), diabetic control group (db cont, n=8) and diabetic adiporon treatment group (db+AdipoR, n=8). The control group was fed a normal diet, and the adiporon treatment group was fed a diet comprising adiporon (30 mg/kg/day) for 4 weeks from 16 weeks of age. During the experiment, body weight was measured every week, fasting blood glucose was measured using an Accu-Chek meter (Roche Diagnostics, St. Louis, MO) every 2 weeks after blood was collected from the tail vein, and glycated hemoglobin (HbA1c) was measured every 4 weeks using a […] automatic analyzer (Bayer healthcare LLC, IN) after blood was collected from the tail vein. The temperature and humidity of the breeding room were maintained at 20˜25° C. and 50˜60%, respectively, and the lights were turned on and off at 12-hour intervals. In both experiments, blood collected from each mouse was allowed to stand at room temperature for 30 minutes, and then centrifuged at 3000 rpm for 15 minutes to obtain serum. Blood levels of tartrate-resistant acid phosphatase (TRAP/ACP5) and osterocalcin concentration were measured by ELISA. In addition, 8-hydroxy-deoxyguanosine, a DNA damage marker caused by oxidative stress, and isoprostane, a marker of oxidative stress caused by lipid peroxidation caused by free fatty acids, and deoxypyridinoline (DPP), which indicates the function of osteoclasts, were measured in 24-hour urine concentrations by ELISA method.

[2] = system: type 2 diabetic db/db mice; experiment: Immunofluorescence staining and western blot of bone tissue, db/db mice; conditions: adiporon 30 mg/kg/day, 4 weeks
Procedure: A leptin receptor-defective type 2 diabetic animal model (db/db mice) and a normal control group (db/m mice) were used, and the experiment was performed by dividing into 4 groups as follows: non-diabetic control group (dm cont, n=8), non-diabetic adiporon treatment group (dm+AdipoR, n=8), diabetic control group (db cont, n=8) and diabetic adiporon treatment group (db+AdipoR, n=8).
The control group was fed a normal diet, and the adiporon treatment group was fed a diet comprising adiporon (30 mg/kg/day) for 4 weeks from 16 weeks of age. During the experiment, body weight was measured every week, fasting blood glucose was measured using an Accu-Chek meter (Roche Diagnostics, St. Louis, MO) every 2 weeks after blood was collected from the tail vein, and glycated hemoglobin (HbA1c) was measured every 4 weeks using a […] automatic analyzer (Bayer healthcare LLC, IN) after blood was collected from the tail vein. The temperature and humidity of the breeding room were maintained at 20˜25° C. and 50˜60%, respectively, and the lights were turned on and off at 12-hour intervals.
After removing tissues of the femur and L5 lumbar vertebrae, some of them were fixed in 10% formalin for immunostaining and decalcified. Thereafter, after neutralization with 0.5M Phosphate buffer (pH 7.4), washing, and embedding in paraffin. Tissue sections were cut to a thickness of 5 μm, and hematoxylin and eosin staining (H&E staining), trichrome staining, and Safranin O staining were performed. In bone tissue, double immunofluorescence staining method was performed using anti-adiponectin receptor 1/2 antibody, anti-perilipin-1 antibody, anti-RANKL antibody, anti-TNF-α antibody, and ApopTag Fluorescein In Situ Apoptosis Detection Kit (Chemicon International, Temecula, CA) and expression was observed using a confocal microscope.
Protein was extracted using Pro-Prep Protein Extraction Solution (Intron Biotechnology, Gyeonggi-Do, Korea), and SDS-PAGE (sodium dodecyl sulfate-polyacrylamide gel electrophoresis) was performed. The separated protein was transferred to a nitrocellulose membrane (Amersham Co., Buckinghamshire, England) and treated with Tris buffered saline (in TBS-T: 0.1% Tween-20 in Tris buffer saline, pH 7.5) containing 3% skim milk. After blocking for an hour, the blots were reacted in adiponectin receptor 1/2, total AMPK, phospho-Thr172AMPK, PGC-1α, Nrf-2, SOD1/2, NQO1, HO-1, NOX4, NF-κB and β-actin primary antibody solution, washing, reacting with a secondary antibody against each primary antibody, and then photosensitizing through ECL (Pierce, Rockford IL) to confirm the band. The expression level of each protein was normalized according to β-actin.

[3] = system: type 2 diabetic db/db mice; experiment: Body weight, blood biochemistry and 24-hour urine oxidative stress in diabetic osteoporosis model db/db mice
Procedure: as §1

[4] = system: ovariectomized C57BL/6 mice; experiment: Growth plate staining (trichrome, Safranin O) of ilium, ovariectomized mice; conditions: 6 weeks
Procedure: 7 weeks after ovariectomization or sham surgery of 7-week-old C57BL/6 mice, normal feed group (adiporon non-administered group; control group) administration group, 2.5 mg/kg day or 25 mg/kg day, respectively Feed comprising adiporon was consumed for 6 weeks from 14 weeks of age. Body weight was measured every week during the experiment period, and the experiment was conducted after 6 weeks of administration. […] Thereafter, after neutralization with 0.5M Phosphate buffer (pH 7.4), washing, and embedding in paraffin. Tissue sections were cut to a thickness of 5 μm, and hematoxylin and eosin staining (H&E staining), trichrome staining, and Safranin O staining were performed. In bone tissue, double immunofluorescence staining method was performed using anti-adiponectin receptor 1/2 antibody, anti-perilipin-1 antibody, anti-RANKL antibody, anti-TNF-α antibody, and ApopTag Fluorescein In Situ Apoptosis Detection Kit (Chemicon International, Temecula, CA) and expression was observed using a confocal microscope.

[5] = system: non-diabetic db/m mice; experiment: Body weight, blood biochemistry and 24-hour urine oxidative stress in non-diabetic db/m mice; conditions: adiporon 30 mg/kg/day in diet for 4 weeks, mean ± SD
Procedure: as §1

[6] = db/db mice (type 2 diabetic), adiporon 30 mg/kg/day in diet for 4 weeks, mean ± SD
[7] = db/db mice, adiporon 30 mg/kg/day, 4 weeks, result in words

SMILES: Cl.O=C(COc1ccc(C(=O)c2ccccc2)cc1)NC1CCN(Cc2ccccc2)CC1 [adiporon]
- Decreased serum ACP5/TRAP concentration ([1]; ELISA): restored
- Decreased serum osteocalcin concentration ([1]; ELISA): restored
- Increased concentration of deoxypyridinoline in urine ([1]; P<0.001): reversed
- Activation of adiponectin-receptor 1-AMPK ([2]; ilium (femur), db/db mice): increased
- Decreased expression of adiponectin-receptor 1/2 (double immunofluorescence staining) ([2]; ilium (femur), db/db mice): restored
- Expression of PGC1α ([2]; ilium (femur), db/db mice): increased
- Expression of adiponectin-receptor 2-PPARα ([2]; ilium (femur), db/db mice): increased
- Expression of antioxidant enzymes (Nrf2, NQO1, HO-1, SOD1, SOD2) ([2]; ilium (femur), db/db mice): normalized
- Expression of oxidative stress markers (NOX4, NFkB) ([2]; ilium (femur), db/db mice): normalized
- Increase in apoptosis (TUNEL staining-positive) ([2]; ilium (femur), db/db mice): restored
- Increase in inflammatory response (TNF-α) ([2]; ilium (femur), db/db mice): restored
- Increase of adipocytes (perilipin-1 immunofluorescent staining) ([2]; ilium (femur), db/db mice): restored
- Increased expression of RANKL ([2]; ilium (femur), db/db mice): restored
- Activation of adiponectin-receptor 1-AMPK ([2]; lumbar vertebrae 5, db/db mice): increased
- Decreased expression of adiponectin-receptor 1/2 (double immunofluorescence staining) ([2]; lumbar vertebrae 5, db/db mice): reversed
- Expression of PGC1α ([2]; lumbar vertebrae 5, db/db mice): increased
- Expression of adiponectin-receptor 2-PPARα ([2]; lumbar vertebrae 5, db/db mice): increased
- Expression of antioxidant enzymes (Nrf2, NQO1, HO-1, SOD1, SOD2) ([2]; lumbar vertebrae 5, db/db mice): normalized
- Expression of oxidative stress markers (NOX4, NFkB) ([2]; lumbar vertebrae 5, db/db mice): normalized
- Increase in apoptosis (TUNEL staining-positive) ([2]; lumbar vertebrae 5, db/db mice): restored
- Increase in inflammatory response (TNF-α) ([2]; lumbar vertebrae 5, db/db mice): restored
- Increase of adipocytes (perilipin-1 immunofluorescent staining) ([2]; lumbar vertebrae 5, db/db mice): restored
- Increased expression of RANKL ([2]; lumbar vertebrae 5, db/db mice): restored
- Body wt [3, 6]: 53 ± 4.8 g
- Urinary 8-OHDG [3, 6]: 74.5 ± 19.6 ng/24 h
- Urinary isoprostane [3, 6]: 19.3 ± 9.4 ng/24 h
- Changes of body weight, blood glucose, glycated hemoglobin, blood total cholesterol, triglyceride, free fatty acid and blood adiponectin ([3]; db/db mice vs db/m, adiporon 30 mg/kg/day, 4 weeks, result in words): restored
- 24-hour urine concentration of 8-hydroxy-deoxyguanosine (increase in db/db) [3, 7]: improved the index increase
- 24-hour urine concentration of isoprostane (increase in db/db) [3, 7]: improved the index increase
- Decreased thickness of the iliac growth plate ([4]; adiporon 2.5 mg/kg day): increased
- Decreased thickness of the iliac growth plate ([4]; adiporon 25 mg/kg day): increased
- Blood glucose [5]: 136 ± 8 mg/dL
- HbA1c [5]: 3.8 ± 0.2%
- Serum NEFA [5]: 0.67 ± 0.23 mEq/I
- Serum TC [5]: 2.5 ± 0.4 mmol/L
- Serum TG [5]: 1.4 ± 0.2 mmol/L
- Serum adiponectin [5]: 11214 ± 1214 ng/mL
- Urinary 8-OHDG [5]: 36.5 ± 14.5 ng/24 h
- Urinary isoprostane [5]: 4.3 ± 2.2 ng/24 h
